The target in test [1] is T1, D1 (Homo sapiens, UniProt P21728). The test is described as follows: D1 cAMP HTRF assay (HEK293T/hD1#1 stable cell line). Type of test: cell-based. Further details: expressed in transfected cells. The procedure, abridged:
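Cells from a stable human D1 HEK293T line in PBS/0.5 μM IBMX were incubated with compound for 30 min at room temperature, and cAMP was then detected by competitive HTRF (1 h, room temperature). A cAMP standard curve converted ratios to cAMP, giving ratio-based and cAMP-based EC50 values.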

Test [2] addresses T1, D1. The test is described as follows: Human D1 receptor binding assay ([3H]-SCH23390 competition). The note with it: Human D1 Receptor Binding, Ki (nM), Geometric mean of 2-4 determinations, a: >=5 determinations, d: single determination.

Results on 33 compounds are retold here after patent publication US20150291625A1 (PFIZER INC., priority 2012, published 2015).

Where “and” joins values, the source holds several entries; their conditions need not be identical. Equal entries are not always repeated. Structures can show the parent of a compound that is named as a salt.

T1 sequence (P21728 whole entry): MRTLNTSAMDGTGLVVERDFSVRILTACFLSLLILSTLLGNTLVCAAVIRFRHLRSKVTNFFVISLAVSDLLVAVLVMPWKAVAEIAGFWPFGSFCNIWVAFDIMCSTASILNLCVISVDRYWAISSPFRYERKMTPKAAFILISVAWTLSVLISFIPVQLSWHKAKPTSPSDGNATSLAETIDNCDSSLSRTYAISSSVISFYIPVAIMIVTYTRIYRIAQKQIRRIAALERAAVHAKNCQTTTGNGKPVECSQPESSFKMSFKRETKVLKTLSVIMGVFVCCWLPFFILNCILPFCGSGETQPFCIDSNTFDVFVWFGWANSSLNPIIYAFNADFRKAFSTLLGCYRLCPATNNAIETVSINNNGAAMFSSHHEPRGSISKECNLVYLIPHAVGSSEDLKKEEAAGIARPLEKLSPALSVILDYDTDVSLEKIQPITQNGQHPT

Compound `CCOc1nncc(C)c1-c1ccc(Oc2nccc3occc23)cc1C` [Example 157, 4-[4-(3-ethoxy-5-methylpyridazin-4-yl)-3-methylphenoxy]furo[3,2-c]pyridine] showed a 50% effective concentration (EC50) on D1 [1] of 3520 nM. For the same compound, the Ki on D1 [2] was 354 nM.

For `CCc1noc(COc2cc(Oc3nccc4occc34)ccc2-c2nccnc2C)n1` [Example 199, 4-{3-[(3-ethyl-1,2,4-oxadiazol-5-yl)methoxy]-4-(3-methylpyrazin-2-yl)phenoxy}furo[3,2-c]pyridine, formate salt], the concentration giving a half-maximal response (EC50) on D1 [1] worked out at 782 nM. The affinity on D1 [2], expressed as Ki, was 104 nM.

Consider `Cc1ncnc(C)c1-c1ccc(Oc2nccc3occc23)cc1O` [Example 72, 2-(4,6-dimethylpyrimidin-5-yl)-5-(furo[3,2-c]pyridin-4-yloxy)phenol], for which a half-maximal effect on D1 [1] (EC50) was put at 989 nM. This compound also showed a Ki at D1 [2] of 91.4 nM.

The compound `CCOCC(=O)Nc1cc(Oc2nccc3occc23)ccc1-c1cccc2nccn12` [Example 47, 2-ethoxy-N-[5-(furo[3,2-c]pyridin-4-yloxy)-2-(imidazo[1,2-a]pyridin-5-yl)phenyl]acetamide] came in with a concentration for a half-maximal effect (EC50) on D1 [1] of 935 nM. In addition, the affinity at D1 [2] corresponds to a Ki of 302 nM.

With `Cc1cc(Oc2nccc3occc23)ccc1-c1c(C)ncnc1N(C)C` [Example 87, 5-[4-(furo[3,2-c]pyridin-4-yloxy)-2-methylphenyl]-N,N,6-trimethylpyrimidin-4-amine], the EC50 on D1 [1] was 600 nM and 482 nM. The compound also showed a Ki on D1 [2] of 22.5 nM.

As for `Cc1cc(Oc2nccc3occc23)ccc1-c1cccc2[nH]c(=O)ccc12` [Example 59, 5-[4-(furo[3,2-c]pyridin-4-yloxy)-2-methylphenyl]quinolin-2(1H)-one], the EC50 on D1 [1] was 1010 nM and 1150 nM. Affinity on D1 [2] was put at a Ki of 103 nM.

As to `Cc1cc(Oc2nccc3occc23)ccc1-c1c(C)nc(N)nc1C#N` [Example 84, 2-amino-5-[4-(furo[3,2-c]pyridin-4-yloxy)-2-methylphenyl]-6-methylpyrimidine-4-carbonitrile], on D1 [1], the EC50 was found to be 360 nM. The compound also returned an inhibition constant Ki on D1 [2] of 116 nM.

`Cc1ncnc(C)c1-c1ccc(Oc2nccc3occc23)c2[nH]ccc12` [Example 23, 4-{[4-(4,6-Dimethylpyrimidin-5-yl)-1H-indol-7-yl]oxy}furo[3,2-c]pyridine] came in with an EC50 on D1 [1] of 848 nM. This compound also showed an inhibitory constant (Ki) on D1 [2] of 30.6 nM.

`COc1cc(Oc2nccc3occc23)ccc1-c1c(C)cnnc1C` (single isomer, unassigned) [Example 142, (−)-4-[4-(3,5-dimethylpyridazin-4-yl)-3-methoxyphenoxy]furo[3,2-c]pyridine] registered an EC50 at D1 [1] of 77.2 nM. On D1 [2], this compound had a Ki of 10.8 nM.

In the case of `Cc1ncnc(C)c1-c1ccc(Oc2nccc3occc23)c2cnn(C)c12` [Example 148, 4-{[7-(4,6-dimethylpyrimidin-5-yl)-1-methyl-1H-indazol-4-yl]oxy}furo[3,2-c]pyridine, trifluoroacetate salt], on D1 [1], the EC50 came to 777 nM. The compound also registered a Ki on D1 [2] of 111 nM.

Consider `Cc1n[nH]c(=O)c(C)c1-c1ccc(Oc2nccc3occ(C#N)c23)cc1` [Example 212, 4-[4-(3,5-dimethyl-6-oxo-1,6-dihydropyridazin-4-yl)phenoxy]furo[3,2-c]pyridine-3-carbonitrile], for which, at D1 [1], the 50% effective concentration (EC50) was 119 nM. This compound also had a Ki on D1 [2] of 18.7 nM.

On D1 [1], `Cc1cc(Oc2nccc3occc23)ccc1-c1c(C)cnc2ncnn12` [Example 45, 7-[4-(furo[3,2-c]pyridin-4-yloxy)-2-methylphenyl]-6-methyl[1,2,4]triazolo[1,5-a]pyrimidine] displayed a half-maximal effective concentration (EC50) of 1140 nM. For the same compound, the Ki at D1 [2] was determined as 182 nM.

Consider `Cc1cc(Oc2nccc3occc23)ccc1-c1c(C)ncnc1N1CCC1` [Example 95, 4-{4-[4-(azetidin-1-yl)-6-methylpyrimidin-5-yl]-3-methylphenoxy}furo[3,2-c]pyridine, formate salt], for which the EC50 on D1 [1] turned out to be 444 nM. On D1 [2], the affinity corresponds to a Ki of 27.3 nM.

On D1 [1], `Cc1cc(Oc2nccc3occc23)ccc1-c1c(C)ncnc1N(C)C` [Example 165, 5-[4-(furo[3,2-c]pyridin-4-yloxy)-2-methylphenyl]-N,N,6-trimethylpyrimidin-4-amine, trifluoroacetate salt] had a concentration for a half-maximal effect (EC50) of 182 nM. In addition, the Ki on D1 [2] amounted to 15.6 nM.

Consider `Cc1cc(Oc2nccc3occc23)ccc1-c1c(C)cnnc1C` [Example 12, 4-[4-(3,5-Dimethylpyridazin-4-yl)-3-methylphenoxy]furo[3,2-c]pyridine], for which the EC50 on D1 [1] was 166 nM and 395 nM. In addition, the affinity on D1 [2], expressed as Ki, was 14.3 nM.

As for `COc1cnnc(C)c1-c1ccc(Oc2nccc3occc23)cc1C` (single isomer, unassigned) [Example 135, 4-[4-(5-methoxy-3-methylpyridazin-4-yl)-3-methylphenoxy]furo[3,2-c]pyridine], the concentration for a half-maximal effect (EC50) on D1 [1] was 276 nM. Besides, at D1 [2], affinity was put at a Ki of 38.7 nM.

Turning to `Cc1ncc2nccn2c1-c1ccc(Oc2nccc3occc23)cc1C(F)(F)F` [Example 100, 5-[4-(furo[3,2-c]pyridin-4-yloxy)-2-(trifluoromethyl)phenyl]-6-methylimidazo[1,2-a]pyrazine], the EC50 at D1 [1] was 112 nM and 580 nM. The compound also gave a Ki at D1 [2] of 11 nM.

On to `Cc1cc(Oc2nccc3occc23)ccc1-c1c(C)ncnc1N1CCC(F)C1` (stereo not drawn) [Example 98, 4-{4-[4-(3-fluoropyrrolidin-1-yl)-6-methylpyrimidin-5-yl]-3-methylphenoxy}furo[3,2-c]pyridine, trifluoroacetate salt], for which, on D1 [1], it took 956 nM to reach a half-maximal effect (EC50). In addition, affinity on D1 [2] was put at a Ki of 28.6 nM.

In the case of `Cc1ncc2nccn2c1-c1ccc(Oc2nccc3occc23)cc1F` [Example 65, 5-[2-fluoro-4-(furo[3,2-c]pyridin-4-yloxy)phenyl]-6-methylimidazo[1,2-a]pyrazine], the EC50 on D1 [1] was 193 nM and 300 nM. Also, at D1 [2], the affinity corresponds to a Ki of 61.1 nM.

On to `Cc1ncnc(C)c1-c1ccc(Oc2nccc3occc23)c(C)c1C` [Example 99, 4-[4-(4,6-dimethylpyrimidin-5-yl)-2,3-dimethylphenoxy]furo[3,2-c]pyridine], for which, at D1 [1], the EC50 was 3040 nM and > 9950 nM. Further, the inhibitory constant (Ki) at D1 [2] turned out to be 1370 nM.

`Cc1cc(Oc2nccc3occc23)c(F)cc1-c1c(C)ncnc1C` [Example 129, 4-[4-(4,6-dimethylpyrimidin-5-yl)-2-fluoro-5-methylphenoxy]furo[3,2-c]pyridine] returned an EC50 at D1 [1] of 268 nM. This compound displayed a Ki on D1 [2] of 32.3 nM.

In turn, `Cc1cc(Nc2nccc3occc23)ccc1-c1c(C)ncnc1C` [Example 132, N-[4-(4,6-dimethylpyrimidin-5-yl)-3-methylphenyl]furo[3,2-c]pyridin-4-amine, formate salt] gave an EC50 at D1 [1] of 2260 nM. Moreover, the affinity on D1 [2] corresponds to a Ki of 39.9 nM.

On to `Cc1cc(Oc2nccc3occc23)ccc1-c1c(C)nc(O)c2nccn12` (single isomer, unassigned) [Example 106, 5-[4-(furo[3,2-c]pyridin-4-yloxy)-2-methylphenyl]-6-methylimidazo[1,2-a]pyrazin-8-ol], for which the EC50 on D1 [1] turned out to be 1310 nM. The same compound had a Ki on D1 [2] of 106 nM.

On D1 [1], `CCCc1noc(COc2cc(Oc3nccc4occc34)ccc2-c2nccnc2C)n1` [Example 182, 4-{4-(3-methylpyrazin-2-yl)-3-[(3-propyl-1,2,4-oxadiazol-5-yl)methoxy]phenoxy}furo[3,2-c]pyridine, formate salt] displayed a 50% effective concentration (EC50) of 641 nM. At D1 [2], the inhibitory constant (Ki) is 58 nM.

Compound `FC(F)(F)c1cc(Oc2nccc3occc23)ccc1-c1cccc2nccn12` [Example 54, 4-[4-(imidazo[1,2-a]pyridin-5-yl)-3-(trifluoromethyl)phenoxy]furo[3,2-c]pyridine] came in with an EC50 on D1 [1] of 243 nM. Affinity at D1 [2] was put at a Ki of 10.2 nM.

For `Cc1nccnc1-c1ccc(Oc2nccc3occc23)cc1OCCCN(C)C` [Example 61, 3-[5-(furo[3,2-c]pyridin-4-yloxy)-2-(3-methylpyrazin-2-yl)phenoxy]-N,N-dimethylpropan-1-amine, formate salt], the EC50 at D1 [1] is 1110 nM and 811 nM. Further, the Ki at D1 [2] is 228 nM.

Turning to `Cc1cc(Oc2nccc3occc23)ccc1-c1cc(N)cnc1C` [Example 86, 5-[4-(furo[3,2-c]pyridin-4-yloxy)-2-methylphenyl]-6-methylpyridin-3-amine], the EC50 at D1 [1] was 833 nM and 4870 nM. In addition, at D1 [2], the Ki was found to be 113 nM.

With `Cc1cc(Oc2nccc3occc23)ccc1-c1c(C)ncn1C` [Example 102, 4-[4-(1,4-dimethyl-1H-imidazol-5-yl)-3-methylphenoxy]furo[3,2-c]pyridine], at D1 [1], the EC50 was 714 nM. This compound came in with an inhibition constant (Ki) on D1 [2] of 84.6 nM.

In the case of `Cc1ncc(N)nc1-c1ccc(Oc2nccc3occc23)cc1F` [Example 93, 6-[2-fluoro-4-(furo[3,2-c]pyridin-4-yloxy)phenyl]-5-methylpyrazin-2-amine], at D1 [1], the EC50 stood at 761 nM. Also, the Ki on D1 [2] was 88 nM.

Turning to `CNc1ncnc(C)c1-c1ccc(Oc2nccc3occc23)cc1C` [Example 81, 5-[4-(furo[3,2-c]pyridin-4-yloxy)-2-methylphenyl]-N,6-dimethylpyrimidin-4-amine], the EC50 on D1 [1] was found to be 1770 nM. Also, affinity on D1 [2] was put at a Ki of 270 nM.

Regarding `COc1cc(Oc2nccc3occc23)ccc1-c1c(C)ccnc1C#N` [Example 51, 3-[4-(furo[3,2-c]pyridin-4-yloxy)-2-methoxyphenyl]-4-methylpyridine-2-carbonitrile, trifluoroacetate salt], the EC50 on D1 [1] is 799 nM and 1220 nM. At D1 [2], the Ki is 61.7 nM.

As to `COc1nc(C)c(-c2ccc(Oc3nccc4occc34)cc2C)c(C)n1` [Example 149, 4-[4-(2-methoxy-4,6-dimethylpyrimidin-5-yl)-3-methylphenoxy]furo[3,2-c]pyridine], on D1 [1], it took 464 nM to reach a half-maximal effect (EC50). Also, on D1 [2], the affinity, expressed as Ki, was 31.4 nM.

Turning to `COc1cc(Oc2nccc3occc23)ccc1-c1c(C)cnnc1C` (single isomer, unassigned) [Example 143, (+)-4-[4-(3,5-dimethylpyridazin-4-yl)-3-methoxyphenoxy]furo[3,2-c]pyridine], the EC50 on D1 [1] worked out at 273 nM. Also, the Ki on D1 [2] was 64.9 nM.
